In patent US12319655B2, “RAF kinase inhibitors and methods of use thereof” (Deciphera Pharmaceuticals, LLC, priority 2021, dated 2025):

Assays:
Miapaca-2 cells = test: MiaPaca-2 Combination Cell proliferation Assay (1) with cobimetinib; type: cell-based; conditions: MiaPaca-2 cell proliferation, read-out: MiaPaca-2 Combo (1) IC50
Method: MiaPaca-2 Combination Cell proliferation Assay (1)
Miapaca-2 cells (catalog #CRL-1420) are obtained from the American Type Culture Collect (ATCC, Manassas, VA). Briefly, cells were grown in DMEM supplemented with 10% characterized fetal bovine serum (Invitrogen, Carlsbad, CA), 2.5% New Zealand sourced horse serum and 1% Penicillin/Streptomycin/L-Glutamine at 37° C., 5% CO2, and 95% humidity. Cells are expanded until reaching 70-95% confluency at which point they are subcultured or harvested for assay use. A serial dilution of test compound was dispensed into multiple 96-well black clear bottom plates in triplicate. A serial dilution of complete growth medium containing cobimetinib was prepared at twice the final concentration and 100 μL was dispensed across the test compound titration in triplicate. Three thousand cells are added per well in 100 μL complete growth medium in each 96-well plate. Plates are incubated for 67-72 hours at 37° C., 5% CO2, and 95% humidity. At the end of the incubation, 40 μL of a 440 μM solution of resazurin (Sigma, St. Louis, MO) in PBS is added to each well of the plate and plates are incubated for an additional 5-7 hours at 37° C., 5% CO2, and 95% humidity. Plates are read on a Synergy2 or equivalent reader (Biotek, Winooski VT) using an excitation of 540 nm and an emission of 600 nm. Drug synergy was assessed via BLISS analysis in the Combenefit software (Cancer Research UK Cambridge Institute, Cambridge, UK). Data is analyzed using Prism software (Graphpad, San Diego, CA) to calculate IC50 values. Shifts in test compound IC50 values are reported from top-constrained combination therapy curves.

WM3629 cells = test: WM3629 Cell Proliferation Assay (1); type: cell-based
Method: WM3629 Cell Proliferation Assay (1)
WM3629 cells (#WM3629-01-0001) are obtained from Rockland Immunochemicals Inc (Gilbertsville, PA). Briefly, cells were grown in MCDB 153 medium (Sigma, #M7403, St. Louis, MO) supplemented with 20% Leibovitz's L-15 (ThermoFisher #11415-064, Waltham, MA), 2% heat inactivated fetal bovine serum (ThermoFisher, #A3840001, Waltham, MA), 5 μg/mL Insulin (Bovine Pancreas) (Sigma, #10516, St. Louis, MO), 1.68 mM Calcium Chloride (Sigma, #C-34006, St. Louis, MO) and 1% Penicillin/Streptomycin/L-Glutamine (ThermoFisher #10378016, Waltham, MA) at 37° C., 5% CO2, and 95% humidity. Cells are expanded until reaching 70-95% confluency at which point they are subcultured or harvested for assay use. A serial dilution of test compound is dispensed into a 96-well black clear bottom plate in triplicate. Four thousand five hundred cells are added per well in 200 μL complete growth medium in the 96-well plate. Plates are incubated for 67-72 hours at 37° C., 5% CO2, and 95% humidity. At the end of the incubation, 40 μL of a 440 μM solution of resazurin (Sigma, #199303, St. Louis, MO) in PBS is added to each well of the plate and plates are incubated for an additional 6-7 hours at 37° C., 5% CO2, and 95% humidity. Plates are read on a Synergy2 or equivalent reader (Biotek, Winooski VT) using an excitation of 540 nm and an emission of 600 nm. Data is analyzed using Prism software (GraphPad, San Diego, CA) to calculate IC50 values.

Structure (SMILES)	IC50 (Miapaca-2 cells)	IC50 (WM3629 cells)
CC(=O)Nc1cc(-c2cc(-c3cc(NC(=O)c4ccnc(C(F)(F)F)c4)ccc3C)cc(N3CCOCC3)n2)ccn1 [Example 15]	≤ 100 nM	
CC(=O)Nc1cc(-c2cc(-c3cc(NC(=O)c4ccnc(C(C)(C)C#N)c4)ccc3C)ccn2)ccn1 [Example 19]	≤ 100 nM	
CNC(=O)c1cc(-c2cc(-c3cc(NC(=O)c4ccnc(C(C)(C)OC)c4)ccc3C)ccn2)ccn1 [Example 264]		≤ 100 nM
Cc1ccc(NC(=O)c2ccnc(C(C)(C)F)c2)cc1-c1ccnc(-c2ccnc(NC(=O)C3CC3)c2)n1 [Example 186]		≤ 100 nM
CNC(=O)c1cc(-c2cc(-c3cc(NC(=O)c4ccnc(C(C)(C)F)c4)ccc3C)ccn2)ccn1 [Example 214]	100 to 500 nM	≤ 100 nM
Cc1ccc(NC(=O)c2ccnc(C3(C#N)CC3)c2)cc1-c1nccc(-c2ccnc(NC(=O)C3CC3)c2)n1 [Example 187]		≤ 100 nM
Cc1ccc(NC(=O)c2ccnc(C(F)F)c2)cc1-c1ccnc(-c2ccnc(NC(=O)C3CC3)c2)n1 [Example 189]	100 to 500 nM	
Cc1ccc(NC(=O)c2ccnc(C3CC3)c2)cc1-c1ccnc(-c2ccnc(NC(=O)C3CC3)c2)n1 [Example 229]		≤ 100 nM
Cc1ccc(NC(=O)c2ccnc(C(C)(C)C#N)c2)cc1-c1cccc(-c2ccnc(NC(=O)C3CC3)c2)c1 [Example 223]	≤ 100 nM	
CCOc1cc(-c2cc(NC(=O)c3ccnc(C(F)(F)F)c3)ccc2C)cc(-c2ccnc(NC(=O)C3CC3)c2)n1 [Example 12]	100 to 500 nM	
Cc1ncc(NC(=O)c2ccnc(C(C)(C)C#N)c2)cc1-c1cccc(-c2ccnc(NC(=O)C3CC3)c2)c1 [Example 222]	≤ 100 nM	≤ 100 nM
Cc1cc(-c2cc(NC(=O)C3CC3)ncn2)cc(-c2cc(NC(=O)c3ccnc(C(C)(C)C#N)c3)ccc2C)c1 [Example 212]		≤ 100 nM
Cc1ncc(NC(=O)c2ccnc(C(C)(C)C#N)c2)cc1-c1ccnc(-c2ccnc(NC(=O)C3CC3)c2)n1 [Example 193]	≤ 100 nM	
Cc1ccc(NC(=O)c2ccnc(C(C)(C)C#N)c2)cc1-c1cccc(-c2cc(NC(=O)C3(C)CC3)ncn2)c1 [Example 197]	100 to 500 nM	

More lines, main results first:

IC50 (Miapaca-2 cells)	Structure (SMILES)	IC50 (WM3629 cells)
≤ 100 nM	COC(=O)Nc1cc(-c2cccc(-c3cc(NC(=O)c4ccnc(C(C)(C)C#N)c4)cnc3C)c2)ncn1 [Example 225]	
≤ 100 nM	Cc1ncc(NC(=O)c2ccnc(C(C)(C)F)c2)cc1-c1cccc(-c2cc(NC(=O)C3CC3)ncn2)c1 [Example 249]	≤ 100 nM
≤ 100 nM	Cc1ccc(NC(=O)c2ccnc(C(C)(C)C#N)c2)cc1-c1cc(-c2ccnc(NC(=O)C3CC3)c2)cnn1 [Example 245]	≤ 100 nM
≤ 100 nM	Cc1ncc(NC(=O)c2cnn(C(C)(C)C)c2)cc1-c1cccc(-c2cc(NC(=O)C3CC3)ncn2)c1 [Example 279]	
≤ 100 nM	Cc1ccc(NC(=O)c2ccnc(C(C)(C)C#N)c2)cc1-c1ccnc(-c2ccnc(NC(=O)C3CC3)c2)n1 [Example 257]	
≤ 100 nM	Cc1ncc(NC(=O)c2ccnc(C(C)(C)C#N)c2)cc1-c1ccnc(-c2ccnc(NC(=O)C3CC3)c2)c1 [Example 251]	
≤ 100 nM	Cc1ccc(NC(=O)c2ccnc(C(C)(C)C#N)c2)cc1-c1cncc(-c2cc(NC(=O)C3CC3)ncn2)c1 [Example 224]	≤ 100 nM
100 to 500 nM	CNC(=O)c1cc(-c2cc(-c3cc(NC(=O)c4ccnc(C5(C#N)CC5)c4)ccc3C)ccn2)ccn1 [Example 265]	
≤ 100 nM	COC(C)(C)c1cc(C(=O)Nc2cnc(C)c(-c3cccc(-c4cc(NC(=O)C5CC5)ncn4)c3)c2)ccn1 [Example 274]	≤ 100 nM
≤ 100 nM	Cc1ccc(NC(=O)c2ccnc(C(C)(C)C#N)c2)cc1-c1cnnc(-c2ccnc(NC(=O)C3CC3)c2)c1 [Example 230]	
100 to 500 nM	CNC(=O)c1cc(-c2cncc(-c3cc(NC(=O)c4ccnc(C(C)(C)C#N)c4)ccc3C)c2)ncn1 [Example 235]	≤ 100 nM
100 to 500 nM	Cc1ccc(NC(=O)c2ccnc(C(C)(C)C#N)c2)cc1-c1ccnc(-c2ccnc(NC(=O)C3(C#N)CC3)c2)n1 [Example 241]	
